Results on one compound are retold here after paper PMC12711892, “A genome-wide CRISPR screen identifies GRA38 as a key regulator of lipid homeostasis during Toxoplasma gondii adaptation to lipid-rich conditions” (Nature Communications, 2025).

This experiment has as its target T1, GRA38-6xHis (Toxoplasma gondii, UniProt A0A7J6JXD8).
T1 construct: gene TGRH88_051660; signal peptide (first 23 residues) removed; C-terminal 6xHis in pET-29b(+), codon-optimised, E. coli BL21; tag kept
In words: malachite green phosphate release assay (PAP activity). The class given is biochemical. The following applies: read-out: % inhibition at 1 mM.

As usually defined, the inhibition is the share of the control response that was lost under treatment.

T1 sequence (A0A7J6JXD8 entry or part of it): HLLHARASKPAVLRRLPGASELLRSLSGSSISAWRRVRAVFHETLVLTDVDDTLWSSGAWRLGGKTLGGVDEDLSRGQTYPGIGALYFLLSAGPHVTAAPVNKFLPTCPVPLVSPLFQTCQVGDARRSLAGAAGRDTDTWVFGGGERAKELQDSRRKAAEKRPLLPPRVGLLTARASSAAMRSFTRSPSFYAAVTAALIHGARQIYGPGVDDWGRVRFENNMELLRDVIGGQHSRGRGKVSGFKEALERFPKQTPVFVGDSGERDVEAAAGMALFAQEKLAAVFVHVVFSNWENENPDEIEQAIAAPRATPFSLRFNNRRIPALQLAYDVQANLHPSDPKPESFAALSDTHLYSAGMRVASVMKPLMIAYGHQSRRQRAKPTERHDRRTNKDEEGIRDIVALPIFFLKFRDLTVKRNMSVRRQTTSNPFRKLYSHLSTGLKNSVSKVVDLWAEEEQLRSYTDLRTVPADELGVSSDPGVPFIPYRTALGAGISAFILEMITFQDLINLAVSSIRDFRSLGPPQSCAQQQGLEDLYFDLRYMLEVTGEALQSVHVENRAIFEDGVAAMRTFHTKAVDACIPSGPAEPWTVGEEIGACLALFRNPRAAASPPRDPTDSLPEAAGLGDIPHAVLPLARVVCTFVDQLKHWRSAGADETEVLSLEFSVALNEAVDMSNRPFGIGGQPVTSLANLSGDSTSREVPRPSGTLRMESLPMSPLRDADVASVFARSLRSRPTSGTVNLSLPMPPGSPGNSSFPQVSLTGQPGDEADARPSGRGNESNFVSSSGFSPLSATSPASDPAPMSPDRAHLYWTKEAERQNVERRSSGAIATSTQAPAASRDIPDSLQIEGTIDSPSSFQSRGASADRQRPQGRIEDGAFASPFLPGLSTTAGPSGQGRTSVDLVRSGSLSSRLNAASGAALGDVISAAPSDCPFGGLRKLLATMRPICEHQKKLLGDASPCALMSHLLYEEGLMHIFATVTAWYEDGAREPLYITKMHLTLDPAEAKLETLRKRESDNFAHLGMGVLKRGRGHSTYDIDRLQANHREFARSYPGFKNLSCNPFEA

Regarding `O=CC(=O)c1ccccc1` [phenylglyoxal], the inhibition at 1000 µM amounted to 45%.
